From ChEMBL document CHEMBL1177853, “Synthesis and pharmacological evaluation of novel substituted 9-deazaxanthines as A2B receptor antagonists” (Eur J Med Chem, 2010)

How the values were obtained:
Adenosine receptor A2b = molecular target: T1, Adenosine receptor A2b (Homo sapiens, UniProt P29275); assay: Displacement of [3H]DPCPX from human recombinant adenosine A2B receptor expressed in HEK293 cells after 30 mins; format: cell-based
T1 sequence (P29275 whole entry): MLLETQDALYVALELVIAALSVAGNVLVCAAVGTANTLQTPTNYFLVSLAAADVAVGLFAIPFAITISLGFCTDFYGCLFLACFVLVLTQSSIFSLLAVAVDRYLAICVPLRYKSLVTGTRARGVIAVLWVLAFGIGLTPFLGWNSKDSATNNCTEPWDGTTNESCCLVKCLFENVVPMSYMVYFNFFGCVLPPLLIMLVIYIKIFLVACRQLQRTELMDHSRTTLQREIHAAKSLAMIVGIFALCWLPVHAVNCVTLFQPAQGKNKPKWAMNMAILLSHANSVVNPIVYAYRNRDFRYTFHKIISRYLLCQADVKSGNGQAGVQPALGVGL

[1] = molecular target: T2, Adenosine receptor A3 (Homo sapiens) (UniProt P0DMS8); assay: Displacement of [3H]NECA from human recombinant adenosine A3 receptor expressed in human HeLa cells at 1 uM after 180 mins by scintillation counting; format: cell-based
T2 sequence (whole entry): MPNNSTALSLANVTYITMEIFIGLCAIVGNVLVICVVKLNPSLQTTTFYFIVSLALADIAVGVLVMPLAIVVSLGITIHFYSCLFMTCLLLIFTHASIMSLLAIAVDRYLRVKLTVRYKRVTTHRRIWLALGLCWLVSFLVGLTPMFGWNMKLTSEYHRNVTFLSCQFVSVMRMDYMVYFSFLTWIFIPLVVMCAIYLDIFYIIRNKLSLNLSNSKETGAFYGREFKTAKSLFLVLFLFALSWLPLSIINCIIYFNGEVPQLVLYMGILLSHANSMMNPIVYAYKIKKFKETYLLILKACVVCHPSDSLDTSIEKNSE

Adenosine receptor A2a [2] = molecular target: T3, Adenosine receptor A2a (Homo sapiens, UniProt P29274); assay: Displacement of [3H]ZM241385 from human recombinant adenosine A2A receptor expressed in human HeLa cells at 1 uM after 30 mins; format: cell-based
Homo sapiens [3] = species on record: Homo sapiens; assay: Selectivity ratio of Ki for human recombinant adenosine A2B receptor to Ki for human recombinant adenosine A1 receptor
[4] = molecular target: T4, Adenosine receptor A1 (Homo sapiens) (UniProt P30542); assay: Displacement of [3H]DPCPX from human recombinant adenosine A1 receptor expressed in CHO-A1 cells at 1 uM after 60 mins; format: cell-based
T4 sequence (whole entry): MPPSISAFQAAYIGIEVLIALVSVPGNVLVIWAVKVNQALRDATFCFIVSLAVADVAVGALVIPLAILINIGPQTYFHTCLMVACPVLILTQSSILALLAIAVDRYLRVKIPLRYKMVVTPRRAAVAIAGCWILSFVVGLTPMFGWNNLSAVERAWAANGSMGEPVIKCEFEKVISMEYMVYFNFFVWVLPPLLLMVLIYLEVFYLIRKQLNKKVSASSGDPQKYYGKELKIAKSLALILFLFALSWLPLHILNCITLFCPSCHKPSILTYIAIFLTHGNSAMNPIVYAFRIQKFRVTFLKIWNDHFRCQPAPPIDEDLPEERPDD

Homo sapiens [5] = species on record: Homo sapiens; assay: Selectivity ratio of Ki for human recombinant adenosine A2B receptor to Ki for human recombinant adenosine A2A receptor
Adenosine receptor A2a [6] = molecular target: T3, Adenosine receptor A2a; assay: Displacement of [3H]ZM241385 from human recombinant adenosine A2A receptor expressed in human HeLa cells after 30 mins; format: cell-based
Adenosine receptor A1 = molecular target: T5, Adenosine receptor A1 (Homo sapiens, UniProt P30542); assay: Displacement of [3H]DPCPX from human recombinant adenosine A1 receptor expressed in CHO-A1 cells after 60 mins; format: cell-based
T5 sequence (P30542 whole entry): T4 sequence (whole entry)

[7] = molecular target: T6, Adenosine receptor A2b (Homo sapiens) (UniProt P29275); assay: Displacement of [3H]DPCPX from human recombinant adenosine A2B receptor expressed in HEK293 cells at 1 uM after 30 mins; format: cell-based
T6 sequence (whole entry): T1 sequence (P29275 whole entry)

T3 sequence (P29274 whole entry): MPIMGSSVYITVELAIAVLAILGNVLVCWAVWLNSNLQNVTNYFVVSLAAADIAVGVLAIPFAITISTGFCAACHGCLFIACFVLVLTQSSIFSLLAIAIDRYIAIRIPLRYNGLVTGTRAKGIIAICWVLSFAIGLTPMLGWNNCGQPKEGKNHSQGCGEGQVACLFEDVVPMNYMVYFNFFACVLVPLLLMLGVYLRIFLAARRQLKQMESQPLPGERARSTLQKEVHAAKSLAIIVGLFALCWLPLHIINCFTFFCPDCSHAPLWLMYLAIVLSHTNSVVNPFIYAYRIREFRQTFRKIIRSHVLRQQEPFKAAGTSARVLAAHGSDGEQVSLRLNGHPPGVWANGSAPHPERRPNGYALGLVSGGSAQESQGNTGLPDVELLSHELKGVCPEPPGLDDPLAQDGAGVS

CCCn1c(=O)c2c(cc(-c3ccc(OCC(=O)Nc4ccc(F)cc4)cc3)n2C)n(C)c1=O
Ki (Adenosine receptor A2b): 30.9 nM
inhibition [1]: 6%
inhibition (Adenosine receptor A2a [2]): 11%
Ratio pKi (Homo sapiens [3]): 5.89

CCCn1c(=O)[nH]c(=O)c2[nH]c(-c3ccc(OCC(=O)Nc4ccccc4)cc3)cc21
Ki (Adenosine receptor A2b): 1050 nM
inhibition [1]: 1%
inhibition (Adenosine receptor A2a [2]): 17%
inhibition [4]: 0.5%

CCCn1c(=O)[nH]c2cc(-c3ccc(OCC(=O)Nc4ccc(F)cc4)cc3)[nH]c2c1=O
Ki (Adenosine receptor A2b): 2.34 nM
inhibition [1]: 2%
Ratio pKi (Homo sapiens [5]): 2750
Ratio pKi (Homo sapiens [3]): 32.4
Ki (Adenosine receptor A2a [6]): 6460 nM
Ki (Adenosine receptor A1): 75.9 nM

CCCn1c(=O)[nH]c(=O)c2[nH]c(-c3ccc(OCC(=O)N4CCN(c5ccccc5)CC4)cc3)cc21
Ki (Adenosine receptor A2b): 115 nM
inhibition [1]: 15%
inhibition (Adenosine receptor A2a [2]): 33%
inhibition [4]: 23%

CCCn1c(=O)[nH]c(=O)c2[nH]c(-c3ccc(OCC(=O)Nc4ccc(Br)cc4)cc3)cc21
Ki (Adenosine receptor A2b): 21.9 nM
inhibition [1]: 28%
inhibition (Adenosine receptor A2a [2]): 22%
inhibition [4]: 41%

COc1cc(OCc2nc(-c3ccc(Br)cc3)no2)ccc1-c1cc2c([nH]1)c(=O)n(C)c(=O)n2C
Ki (Adenosine receptor A2b): 40.7 nM
inhibition [1]: 3%
Ratio pKi (Homo sapiens [5]): 17.4
Ki (Adenosine receptor A2a [6]): 708 nM
inhibition [4]: 36%
Ki (Adenosine receptor A1): 182 nM

CCCn1c(=O)[nH]c(=O)c2[nH]c(-c3ccc(OCC(=O)Nc4ccc(F)cc4)cc3)cc21
Ki (Adenosine receptor A2b): 100 nM
inhibition [1]: 3%
inhibition (Adenosine receptor A2a [2]): 36%
inhibition [4]: 2%

CCCn1c(=O)c2c(cc(-c3ccc(OCC(=O)N4CCc5ccccc5C4)cc3)n2C)n(CCC)c1=O
Ki (Adenosine receptor A2b): 97.7 nM
inhibition [1]: 9%
inhibition (Adenosine receptor A2a [2]): 29%
inhibition [4]: 19%

CCCn1c(=O)[nH]c2cc(-c3ccc(OCC(=O)Nc4ccc(Br)cc4)cc3)[nH]c2c1=O
Ki (Adenosine receptor A2b): 3.55 nM
inhibition [1]: 14%
inhibition (Adenosine receptor A2a [2]): 43%
Ratio pKi (Homo sapiens [3]): 0.49
Ki (Adenosine receptor A1): 1.74 nM

CCCn1c(=O)[nH]c2cc(-c3ccc(OCc4nc(-c5ccc(Br)cc5)no4)cc3)[nH]c2c1=O
Ki (Adenosine receptor A2b): 31.6 nM
inhibition [1]: 2%
inhibition (Adenosine receptor A2a [2]): 11%
inhibition [4]: 21%

CCCn1c(=O)c2c(cc(-c3ccc(OCC(=O)Nc4ccc(F)cc4)cc3)n2C)n(CCC)c1=O
inhibition [1]: 1%
inhibition (Adenosine receptor A2a [2]): 15%
inhibition [7]: 20%
inhibition [4]: 9%

CCCn1c(=O)[nH]c(=O)c2[nH]c(-c3ccc(OCC(=O)N4CCc5ccccc5C4)cc3)cc21
Ki (Adenosine receptor A2b): 79.4 nM
inhibition [1]: 1%
inhibition (Adenosine receptor A2a [2]): 12%
inhibition [4]: 9%

CCCn1c(=O)c2c(cc(-c3ccc(OCC(=O)N4CCN(c5ccccc5)CC4)cc3)n2C)n(CCC)c1=O
inhibition [1]: 2%
inhibition (Adenosine receptor A2a [2]): 22%
inhibition [7]: 36%
inhibition [4]: 22%
